Laboratory results: PMC8687465 (bioRxiv, 2023)

Test system: FLUV (A/WSN/33)
Format: cell-based, influenza A/WSN/33

## CCOC(=O)C1=C[C@@H](OC(CC)CC)[C@H](NC(C)=O)[C@@H](N)C1 [Oseltamivir]
  activity against FLUV after 7 passages with compound (resistance development): lost activity by passage 7
